Laboratory results: PubChem BioAssay AID651573 (The Scripps Research Institute Molecular Screening Center, 2012)
The source made the active and inactive calls.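 How the source made its calls: active means percent growth at or below 50%, meaning growth inhibited by at least half; inactive means percent growth above 50%.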

Tests used:
Assay in all cases: growth inhibition across NCI60 tumor lines, profiling panel, STAT3 inhibitor project, cell-based, NCI60 one-dose, 10 µM (AID 651573)
Ovarian Cancer OVCAR-4 = conditions: SRB absorbance, 48 h, at 10 µM, stronger effect = lower value
[1] = system: Non-Small Cell Lung Cancer EKVX; conditions: SRB absorbance, 48 h, at 10 µM, stronger effect = lower value
Renal Cancer TK-10 = conditions: SRB absorbance, 48 h, at 10 µM, stronger effect = lower value
Melanoma SK-MEL-5 = conditions: NCI60 cancer cell panel growth, SRB absorbance, 48 h, at 10 µM, stronger effect = lower value
[2] = system: Non-Small Cell Lung Cancer NCI-H322M; conditions: SRB absorbance, 48 h, at 10 µM, stronger effect = lower value
Breast Cancer MCF7 = conditions: SRB absorbance, 48 h, at 10 µM, stronger effect = lower value
CNS Cancer U251 = conditions: SRB absorbance, 48 h, at 10 µM, stronger effect = lower value
Breast Cancer BT-549 = conditions: SRB absorbance, 48 h, at 10 µM, stronger effect = lower value, 0 = no net growth, negative = cell kill
CNS Cancer SF-268 = conditions: SRB absorbance, 48 h, at 10 µM, stronger effect = lower value
Melanoma MDA-MB-435 = conditions: NCI60 cancer cell panel growth, SRB absorbance, 48 h, at 10 µM, stronger effect = lower value
Renal Cancer A498 = conditions: SRB absorbance, 48 h, at 10 µM, stronger effect = lower value
Leukemia K-562 = conditions: NCI60 cancer cell panel growth, SRB absorbance, 48 h, at 10 µM, stronger effect = lower value
Renal Cancer 786-0 = conditions: SRB absorbance, 48 h, at 10 µM, stronger effect = lower value
Colon Cancer HCT-116 = conditions: SRB absorbance, 48 h, at 10 µM, stronger effect = lower value
Renal Cancer RXF 393 = conditions: SRB absorbance, 48 h, at 10 µM, stronger effect = lower value
Leukemia RPMI-8226 = conditions: NCI60 cancer cell panel growth, SRB absorbance, 48 h, at 10 µM, stronger effect = lower value
Prostate Cancer PC-3 = conditions: SRB absorbance, 48 h, at 10 µM, stronger effect = lower value
Ovarian Cancer SK-OV-3 = conditions: SRB absorbance, 48 h, at 10 µM, stronger effect = lower value
Melanoma LOX IMVI = conditions: NCI60 cancer cell panel growth, SRB absorbance, 48 h, at 10 µM, stronger effect = lower value
Melanoma M14 = conditions: NCI60 cancer cell panel growth, SRB absorbance, 48 h, at 10 µM, stronger effect = lower value
[3] = system: Non-Small Cell Lung Cancer NCI-H226; conditions: SRB absorbance, 48 h, at 10 µM, stronger effect = lower value
Breast Cancer HS 578T = conditions: SRB absorbance, 48 h, at 10 µM, stronger effect = lower value
[4] = system: Non-Small Cell Lung Cancer NCI-H460; conditions: SRB absorbance, 48 h, at 10 µM, stronger effect = lower value
Breast Cancer MDA-MB-468 = conditions: SRB absorbance, 48 h, at 10 µM, stronger effect = lower value
Colon Cancer COLO 205 = conditions: SRB absorbance, 48 h, at 10 µM, stronger effect = lower value, 0 = no net growth, negative = cell kill
[5] = system: Non-Small Cell Lung Cancer A549/ATCC; conditions: SRB absorbance, 48 h, at 10 µM, stronger effect = lower value
CNS Cancer SF-295 = conditions: SRB absorbance, 48 h, at 10 µM, stronger effect = lower value
Melanoma SK-MEL-28 = conditions: NCI60 cancer cell panel growth, SRB absorbance, 48 h, at 10 µM, stronger effect = lower value
[6] = system: Non-Small Cell Lung Cancer NCI-H522; conditions: SRB absorbance, 48 h, at 10 µM, stronger effect = lower value
Melanoma SK-MEL-2 = conditions: NCI60 cancer cell panel growth, SRB absorbance, 48 h, at 10 µM, stronger effect = lower value
Colon Cancer KM12 = conditions: SRB absorbance, 48 h, at 10 µM, stronger effect = lower value
[7] = system: Non-Small Cell Lung Cancer HOP-92; conditions: SRB absorbance, 48 h, at 10 µM, stronger effect = lower value, 0 = no net growth, negative = cell kill
Leukemia SR = conditions: NCI60 cancer cell panel growth, SRB absorbance, 48 h, at 10 µM, stronger effect = lower value
Colon Cancer HCC-2998 = conditions: SRB absorbance, 48 h, at 10 µM, stronger effect = lower value
Melanoma MALME-3M = conditions: NCI60 cancer cell panel growth, SRB absorbance, 48 h, at 10 µM, stronger effect = lower value
Melanoma UACC-62 = conditions: NCI60 cancer cell panel growth, SRB absorbance, 48 h, at 10 µM, stronger effect = lower value, 0 = no net growth, negative = cell kill
Ovarian Cancer OVCAR-8 = conditions: SRB absorbance, 48 h, at 10 µM, stronger effect = lower value
[8] = system: Non-Small Cell Lung Cancer HOP-62; conditions: SRB absorbance, 48 h, at 10 µM, stronger effect = lower value, 0 = no net growth, negative = cell kill
Colon Cancer HCT-15 = conditions: SRB absorbance, 48 h, at 10 µM, stronger effect = lower value
CNS Cancer SNB-75 = conditions: SRB absorbance, 48 h, at 10 µM, stronger effect = lower value
[9] = system: Breast Cancer MDA-MB-231/ATCC; conditions: SRB absorbance, 48 h, at 10 µM, stronger effect = lower value
Melanoma UACC-257 = conditions: NCI60 cancer cell panel growth, SRB absorbance, 48 h, at 10 µM, stronger effect = lower value
[10] = system: Ovarian Cancer NCI/ADR-RES; conditions: SRB absorbance, 48 h, at 10 µM, stronger effect = lower value
Colon Cancer SW-620 = conditions: SRB absorbance, 48 h, at 10 µM, stronger effect = lower value, 0 = no net growth, negative = cell kill
Ovarian Cancer OVCAR-3 = conditions: SRB absorbance, 48 h, at 10 µM, stronger effect = lower value
Leukemia MOLT-4 = conditions: NCI60 cancer cell panel growth, SRB absorbance, 48 h, at 10 µM, stronger effect = lower value
Renal Cancer SN12C = conditions: SRB absorbance, 48 h, at 10 µM, stronger effect = lower value
Prostate Cancer DU-145 = conditions: SRB absorbance, 48 h, at 10 µM, stronger effect = lower value
CNS Cancer SNB-19 = conditions: SRB absorbance, 48 h, at 10 µM, stronger effect = lower value
[11] = system: Non-Small Cell Lung Cancer NCI-H23; conditions: SRB absorbance, 48 h, at 10 µM, stronger effect = lower value
Renal Cancer CAKI-1 = conditions: SRB absorbance, 48 h, at 10 µM, stronger effect = lower value
Leukemia CCRF-CEM = conditions: NCI60 cancer cell panel growth, SRB absorbance, 48 h, at 10 µM, stronger effect = lower value

For `COc1ccc(CC2CCN(c3ncnc4sccc34)CC2)cc1`, the percent growth (Ovarian Cancer OVCAR-4) was 50.7% (inactive), the percent growth [1] was 39.9% and the percent growth (Renal Cancer TK-10) was 80.4% (inactive). The percent growth (Melanoma SK-MEL-5) was 31.8%, the percent growth [2] was 66.6% (inactive) and the percent growth (Breast Cancer MCF7) was 55.5% (inactive). The percent growth (CNS Cancer U251) was 73.2% (inactive), the percent growth (Breast Cancer BT-549) was 56% (inactive) and the percent growth (CNS Cancer SF-268) was 93.2% (inactive). The percent growth (Melanoma MDA-MB-435) was 66.9% (inactive), the percent growth (Renal Cancer A498) was 96.1% (inactive) and the percent growth (Leukemia K-562) was 41.1%. For the same molecule, the percent growth (Renal Cancer 786-0) was 65.6% (inactive), the percent growth (Colon Cancer HCT-116) was 34.9% and the percent growth (Renal Cancer RXF 393) was 108% (inactive). The percent growth (Leukemia RPMI-8226) was 25.4%, the percent growth (Prostate Cancer PC-3) was 81.5% (inactive) and the percent growth (Ovarian Cancer SK-OV-3) was 87.5% (inactive). The percent growth (Melanoma LOX IMVI) was 34.4%, the percent growth (Melanoma M14) was 87.5% (inactive) and the percent growth [3] was 82% (inactive). The percent growth (Breast Cancer HS 578T) was 90.1% (inactive), the percent growth [4] was 62.4% (inactive) and the percent growth (Breast Cancer MDA-MB-468) was 21.3%. For the same molecule, the percent growth (Colon Cancer COLO 205) was 95% (inactive), the percent growth [5] was 64.2% (inactive) and the percent growth (CNS Cancer SF-295) was 59% (inactive). The percent growth (Melanoma SK-MEL-28) was 108% (inactive), the percent growth [6] was 48.5% and the percent growth (Melanoma SK-MEL-2) was 71.3% (inactive). The percent growth (Colon Cancer KM12) was 91.7% (inactive), the percent growth [7] was 75.4% (inactive) and the percent growth (Leukemia SR) was 72.5% (inactive). The percent growth (Colon Cancer HCC-2998) was 88.5% (inactive), the percent growth (Melanoma MALME-3M) was 127% (inactive) and the percent growth (Melanoma UACC-62) was 54.8% (inactive). For the same molecule, the percent growth (Ovarian Cancer OVCAR-8) was 65.4% (inactive), the percent growth [8] was 93.6% (inactive) and the percent growth (Colon Cancer HCT-15) was 73.7% (inactive). The percent growth (CNS Cancer SNB-75) was 100% (inactive), the percent growth [9] was 79.8% (inactive) and the percent growth (Melanoma UACC-257) was 67.2% (inactive). The percent growth [10] was 43.4%, the percent growth (Colon Cancer SW-620) was 86.9% (inactive) and the percent growth (Ovarian Cancer OVCAR-3) was 94.1% (inactive). For the same molecule, the percent growth (Leukemia MOLT-4) was 66% (inactive), the percent growth (Renal Cancer SN12C) was 72.9% (inactive) and the percent growth (Prostate Cancer DU-145) was 99.4% (inactive). The percent growth (CNS Cancer SNB-19) was 69.3% (inactive), the percent growth [11] was 46.8% and the percent growth (Renal Cancer CAKI-1) was 66.3% (inactive). For the same molecule, the percent growth (Leukemia CCRF-CEM) was 51% (inactive).
